Experimental data as given in patent publication EP0148075A2, “Anti-PGE specific monoclonal antibodies, their preparation and their biological applications” (INSTITUT PASTEUR, priority 1983, dated 1985).

Assays:
Assay type in all cases: binding, souris
[1] = biological target: anticorps monoclonal anti-PG E2 secrété par les hybridomes 8E57 (CNCM 1-254); assay: competition radioimmunoassay (affinity by Scatchard plot, specificity by displacement of tritiated PG E2); details: 12 h at 4°C; for quantité qu'il faut pour déplacer 2,5 pg de PG E2 tritiée de sa liaison à l'anticorps: competition with tritiated PG E2
Experimental: (§1) 'L'affinité des anticorps est étudiée en effectuant un essai radio-immunologique dit de compétition; on détermine l'importance relative de la fixation de PG E marquée au tritium et non marquée sur les anticorps monoclonaux à étudier pour des mélanges de ces PG E en quantités données; Pour cela, on fait incuber 12 heures à 4°C des quantités croissantes de PG E non marquée avec une dilution du surnageant de chaque puits dans lequel se développent des clones secréteurs, en présence de 10 pg de la même PG E mais tritiée; on calcule la dilution pour que 50% de la PG E tritiée se fixe sur les anticorps présents; les résultats obtenus sont représentés selon une courbe de Scatchard, d'où l'on déduit, de façon connue, la constante d'association de l'anticorps monoclonal à la PG E qui traduit l'affinité des anticorps pour leur antigène. La méthode de calcul de la constante d'association est décrite notamment dans Ann. N.Y. Acad. Sci.5l, p.660-672 (1949).
(§2) La spécificité des anticorps est étudiée en effectuant le même type d'essai radioimmunologique de compétition lors de la fixation sur l'anticorps monoclonal anti-PG E à étudier, mais la compétition a lieu entre la PG E tritiée correspondant à l'anticorps préparé et d'autres prostaglandines.
(§3) On mesure l'affinité et la spécificité des anti-corps secrétés dans le surnageant, par les méthodes radio-immunologiques de compétition de liaison précédemment décrites.

[2] = biological target: anticorps monoclonal anti-PG E2 secrété par les hybridomes 42-61-48 (CNCM 1-255), type IgG Cb Kapa; assay: as above; details: 12 h at 4°C; for quantité qu'il faut pour déplacer 2,5 pg de PG E2 tritiée liée à l'anticorps: competition with tritiated PG E2
Experimental: as §1, §2, §3

[3] = biological target: anticorps monoclonal anti-PG E2 de la souche 38-200.10 (CNCM I-401), type IgGl Kapa; assay: competition radioimmunoassay (affinity, Scatchard plot); details: association constant for PG E2; 720 min; read-out: constante d'affinité (converted)
Experimental: as §1, §3

[4] = biological target: anticorps monoclonal anti-PG E2 de la souche 42-61-48.46 (CNCM I-402); assay: as above; details: association constant for PG E2; 720 min; read-out: constante d'affinité (converted)
Experimental: as §1, §3

[5] = biological target: anticorps monoclonal anti-PG E1 de la lignée d'hybridomes 36-F-20 (36F20, CNCM I-403), type IgG 1 Kapa; assay: as above; details: association constant for PG E1; 720 min; read-out: constante d'affinité (converted)
Experimental: as §1

[6] = association constant for PG E2, 10 pg tritiated PG E2

Structure (SMILES) | constante d'affinité Ka [1, 6] | quantité qu'il faut pour déplacer 2,5 pg de PG E2 tritiée de sa liaison à l'anticorps [1] | constante d'affinité Ka [2, 6] | quantité qu'il faut pour déplacer 2,5 pg de PG E2 tritiée liée à l'anticorps [2] | Kd [3] | Kd [4] | Kd [5]
CCCCC[C@H](O)/C=C/[C@H]1[C@H](O)CC(=O)[C@@H]1C/C=C\CCCC(=O)O [PG E2] | 10^10 M^-1 | 40 pg | 5e+09 M⁻¹ | 80 pg | 0.11 nM | 0.222 nM | 
CCCCC[C@H](O)/C=C/[C@H]1[C@H](O)CC(=O)[C@@H]1CC(=O)CCCCC(=O)O [6-céto-PG E1] |  | 350 pg |  | 1000 pg |  |  | 
CCCCC[C@H](O)/C=C/[C@H]1C=CC(=O)[C@@H]1C/C=C\CCCC(=O)O [PG A2] |  | > 500 pg |  | 50 000 pg |  |  | 
CCCCC[C@H](O)/C=C/[C@H]1[C@H](O)CC(=O)[C@@H]1CCCCCCC(=O)O [PG E1] |  | 70 pg |  | 350 pg |  |  | 0.05 nM

Further lines, results first:

constante d'affinité Ka [1, 6] | quantité qu'il faut pour déplacer 2,5 pg de PG E2 tritiée de sa liaison à l'anticorps [1] | constante d'affinité Ka [2, 6] | quantité qu'il faut pour déplacer 2,5 pg de PG E2 tritiée liée à l'anticorps [2] | Kd [3] | Kd [4] | Kd [5] | Structure (SMILES)
 |  |  | 40 000 pg |  |  |  | CCCCC[C@H](O)/C=C/[C@@H]1[C@@H](CCCCCCC(=O)O)[C@@H](O)C[C@H]1O [PG Flalpha]
 | > 10 000 pg |  | 500 000 pg |  |  |  | CCCCC[C@H](O)/C=C/C1=C(C/C=C\CCCC(=O)O)C(=O)CC1 [PG B2]
